Measurements as given in ChEMBL document CHEMBL1201862, “PubChem BioAssay data set” (2004).
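Interpolation was linear, between the two tested concentrations surrounding the appropriate level; five concentrations were tested over 48 hours in 96-well plates. Abbreviation: GI50, concentration required for 50% inhibition of growth.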 Calls of active or inactive are those of the source. Cut-off read from the data, not from the text of the source: active = GI50 up to about 1.1 µM and inactive = higher.

What was measured:
Test in all cases: NCI anticancer screen, dose series, 48 h
786-0 = system: 786-0
A498 = system: A498
A549 = system: A549
ACHN = system: ACHN
BT-549 = system: BT-549
CAKI-1 = system: CAKI-1
CCRF-CEM = system: CCRF-CEM
COLO 205 = system: COLO 205
EKVX = system: EKVX
HCT-116 = system: HCT-116
HCT-15 = system: HCT-15
HL-60 = system: HL-60
HOP-62 = system: HOP-62
HOP-92 = system: HOP-92
HT-29 = system: HT-29
Hs-578T = system: Hs-578T
IGROV-1 = system: IGROV-1
K562 = system: K562
KM12 = system: KM12
LOX IMVI = system: LOX IMVI
M14 = system: M14
MCF7 = system: MCF7
MDA-MB-231 = system: MDA-MB-231
MDA-MB-435 = system: MDA-MB-435
MDA-N = system: MDA-N
MOLT-4 = system: MOLT-4
Malme-3M = system: Malme-3M
NCI-H226 = system: NCI-H226
NCI-H23 = system: NCI-H23
NCI-H460 = system: NCI-H460
NCI-H522 = system: NCI-H522
NCI/ADR-RES = system: NCI/ADR-RES
OVCAR-3 = system: OVCAR-3
OVCAR-4 = system: OVCAR-4
OVCAR-5 = system: OVCAR-5
OVCAR-8 = system: OVCAR-8
PC-3 = system: PC-3
RPMI-8226 = system: RPMI-8226
RXF 393 = system: RXF 393
SF-268 = system: SF-268
SF-295 = system: SF-295
SF-539 = system: SF-539
SK-MEL-28 = system: SK-MEL-28
SK-MEL-2 = system: SK-MEL-2
SK-MEL-5 = system: SK-MEL-5
SK-OV-3 = system: SK-OV-3
SNB-19 = system: SNB-19
SNB-75 = system: SNB-75
SR = system: SR
SW-620 = system: SW-620
T47D = system: T47D
TK-10 = system: TK-10
U-251 = system: U-251
UACC-257 = system: UACC-257
UACC-62 = system: UACC-62
UO-31 = system: UO-31

Structure (SMILES): COC(=O)[C@](C)(Cc1ccccc1)NC(=O)[C@@H](C)N1[C@@H](c2ccccc2)COC1(C)C
- GI50 (786-0): 72.4 µM (inactive)
- GI50 (A498): 99.8 µM (inactive)
- GI50 (A549): 63.8 µM (inactive)
- GI50 (ACHN): 36.7 µM (inactive)
- GI50 (BT-549): 48.2 µM (inactive)
- GI50 (CAKI-1): 82.2 µM (inactive)
- GI50 (CCRF-CEM): 89.7 µM (inactive)
- GI50 (COLO 205): 20.1 µM (inactive)
- GI50 (EKVX): 57.9 µM (inactive)
- GI50 (HCT-116): 38.5 µM (inactive)
- GI50 (HCT-15): 37.7 µM
- GI50 (HL-60): 63.5 µM (inactive)
- GI50 (HOP-62): > 100 µM (inactive)
- GI50 (HOP-92): 36 µM (inactive)
- GI50 (HT-29): 46.9 µM (inactive)
- GI50 (Hs-578T): 24.5 µM (inactive)
- GI50 (IGROV-1): 51.2 µM (inactive)
- GI50 (K562): 48.1 µM (inactive)
- GI50 (KM12): 22.2 µM (inactive)
- GI50 (LOX IMVI): 77.6 µM (inactive)
- GI50 (M14): 63.7 µM (inactive)
- GI50 (MCF7): 52 µM (inactive)
- GI50 (MDA-MB-231): 47 µM (inactive)
- GI50 (MDA-MB-435): 48.8 µM (inactive)
- GI50 (MDA-N): 44.2 µM (inactive)
- GI50 (MOLT-4): 34.4 µM (inactive)
- GI50 (Malme-3M): 44.6 µM (inactive)
- GI50 (NCI-H226): 56.2 µM (inactive)
- GI50 (NCI-H23): 51.9 µM (inactive)
- GI50 (NCI-H460): 31 µM (inactive)
- GI50 (NCI-H522): 13.1 µM (inactive)
- GI50 (NCI/ADR-RES): 24.9 µM (inactive)
- GI50 (OVCAR-3): 37.6 µM (inactive)
- GI50 (OVCAR-4): 39.6 µM (inactive)
- GI50 (OVCAR-5): > 100 µM (inactive)
- GI50 (OVCAR-8): 78.5 µM (inactive)
- GI50 (PC-3): 29.1 µM (inactive)
- GI50 (RPMI-8226): 39.5 µM (inactive)
- GI50 (RXF 393): 75.3 µM (inactive)
- GI50 (SF-268): 85.7 µM (inactive)
- GI50 (SF-295): 53 µM (inactive)
- GI50 (SF-539): > 100 µM (inactive)
- GI50 (SK-MEL-28): > 100 µM (inactive)
- GI50 (SK-MEL-2): > 100 µM (inactive)
- GI50 (SK-MEL-5): 43.5 µM (inactive)
- GI50 (SK-OV-3): > 100 µM (inactive)
- GI50 (SNB-19): > 100 µM (inactive)
- GI50 (SNB-75): 14.4 µM (inactive)
- GI50 (SR): 27.5 µM (inactive)
- GI50 (SW-620): 51.8 µM (inactive)
- GI50 (T47D): 46.5 µM (inactive)
- GI50 (TK-10): > 100 µM (inactive)
- GI50 (U-251): 57.7 µM (inactive)
- GI50 (UACC-257): 53.7 µM (inactive)
- GI50 (UACC-62): 63.5 µM (inactive)
- GI50 (UO-31): 30.6 µM (inactive)
